Measured values: ChEMBL document CHEMBL1124263 (J Med Chem, 1988)

Assays:
[1] = target: T1, Serotonin 2 (5-HT2) receptor (Rattus norvegicus, UniProt P30994+P08909+P14842)
[2] = target: 5-hydroxytryptamine receptor 1B (Rattus norvegicus, UniProt P28564); test: biochemical
[3] = target: T1, Serotonin 2 (5-HT2) receptor; test: Ability to displace 0.75 nM [3H]ketanserin in 5-hydroxytryptamine 2 receptor from rat frontal cortex homogenate; assay type: tissue-based

Sequence of 5-hydroxytryptamine receptor 1B (P28564 whole entry): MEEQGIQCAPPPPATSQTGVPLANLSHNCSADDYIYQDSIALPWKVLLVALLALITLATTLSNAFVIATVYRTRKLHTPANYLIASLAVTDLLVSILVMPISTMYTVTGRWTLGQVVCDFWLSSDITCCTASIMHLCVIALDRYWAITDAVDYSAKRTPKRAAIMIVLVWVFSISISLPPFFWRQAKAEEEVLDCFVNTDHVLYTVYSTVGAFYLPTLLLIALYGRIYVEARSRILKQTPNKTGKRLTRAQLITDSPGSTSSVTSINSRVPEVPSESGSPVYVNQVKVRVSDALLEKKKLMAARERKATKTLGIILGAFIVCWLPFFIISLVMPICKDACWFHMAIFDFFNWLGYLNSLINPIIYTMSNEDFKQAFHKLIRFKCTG

COc1ccc2[nH]cc(C[C@@H](C)N)c2c1
Log Ki [1]: -5.89 | Ki [2]: 380 nM

COc1cccc2[nH]cc(C[C@H](C)N)c12
Log Ki [1]: -6.02 | Ki [2]: 2690 nM

C[C@@H](N)Cc1c[nH]c2cccc(O)c12
Log Ki [1]: -5.46 | Ki [2]: 1550 nM

COc1cccc2[nH]cc(C[C@@H](C)N)c12
Log Ki [1]: -5.84 | Ki [2]: 776 nM

C[C@H](N)Cc1c[nH]c2cccc(O)c12
Log Ki [1]: -5.21 | Ki [2]: 4070 nM

COc1ccc2c(C[C@H](C)N)c[nH]c2c1
Ki [3]: > 10000 nM | Ki [2]: 7240 nM

COc1ccc2[nH]cc(C[C@H](C)N)c2c1
Log Ki [1]: -6.15 | Ki [2]: 417 nM

COc1ccc2c(C[C@@H](C)N)c[nH]c2c1
Ki [3]: > 10000 nM | Ki [2]: 2140 nM
